{"source": "patent US12036312B2", "about": "“Non-aqueous topical compositions comprising a halogenated salicylanilide” (priority 2016, dated 2024)", "tested_on": "S. aureus", "assay": "MIC assay according to CLSI criteria, Example 2, S. aureus strains", "assay_type": "cell-based, Staphylococcus aureus", "conditions": "Staphylococcus aureus", "text": "Chosen for its relevance regarding bacterial skin infections, the methicillin-resistant S. aureus (MRSA) 01 strain was used as the primary test microorganism. This strain is a community-acquired MRSA clinical isolate of USA 300 type, from a skin abscess.\nTwo-hundred-four other MRSA and methicillin-sensitive S. aureus strains, and 4 Streptococcus pyogenes strains, were also included in the study. These covered fusidic acid- and mupirocin-resistant strains, these two types of resistance being of clinical relevance.\nStrains were conserved in Luria Bertani (LB) Broth (S. aureus) or Brain Heart Infusion (BHI) (S. pyogenes) supplemented with glycerol 15% (v/v) at −80° C., and reactivated by isolation on LB (S. aureus) or BHI (S. pyogenes) agar plates. Strains were cultivated in Mueller Hinton (MH) Broth-cation adjusted (S. aureus) or BHI (S. pyogenes). All strains were cultivated aerobically (microaerobically for S. pyogenes strains) at 37° C.\nBacterial cultures were stopped in their exponential growth phase and plates were inoculated with the approximate concentration of 5×10^5 cells per well. Plates were incubated at 37° C. for 18 hours (S. aureus) or 24 hours (S. pyogenes). Optical density at a wavelength of 600 nm was measured at the end of the incubation time.", "data": [{"smiles": "CN[C@H](CC(C)C)C(=O)N[C@H]1C(=O)N[C@@H](CC(N)=O)C(=O)N[C@H]2C(=O)N[C@H]3C(=O)N[C@H](C(=O)N[C@H](C(=O)O)c4cc(O)cc(O)c4-c4cc3ccc4O)[C@H](O)c3ccc(c(Cl)c3)Oc3cc2cc(c3O[C@@H]2O[C@H](CO)[C@@H](O)[C@H](O)[C@H]2O[C@H]2C[C@](C)(N)[C@H](O)[C@H](C)O2)Oc2ccc(cc2Cl)[C@H]1O", "note": "[Vancomycin, vancomycin]", "values": [{"measurement": "MIC", "setting": "MRSA, strain MRSA 102", "value": 2, "unit": "µg/mL"}, {"measurement": "MIC", "setting": "MRSA, strain MRSA 103", "value": 1, "unit": "µg/mL"}, {"measurement": "MIC", "setting": "MRSA, strain MRSA 104", "value": 1, "unit": "µg/mL"}, {"measurement": "MIC", "setting": "MRSA, strain MRSA 105", "value": 1, "unit": "µg/mL"}, {"measurement": "MIC", "setting": "MRSA, strain MRSA 106", "value": 1, "unit": "µg/mL"}, {"measurement": "MIC", "setting": "MRSA, strain MRSA 107", "value": 2, "unit": "µg/mL"}, {"measurement": "MIC", "setting": "MRSA, strain MRSA 108", "value": 1, "unit": "µg/mL"}, {"measurement": "MIC", "setting": "MRSA, strain MRSA 109", "value": 1, "unit": "µg/mL"}, {"measurement": "MIC", "setting": "MRSA, strain MRSA 110", "value": 1, "unit": "µg/mL"}, {"measurement": "MIC", "setting": "MRSA, strain MRSA 111", "value": 1, "unit": "µg/mL"}, {"measurement": "MIC", "setting": "MRSA, strain MRSA 112", "value": 1, "unit": "µg/mL"}, {"measurement": "MIC", "setting": "MRSA, strain MRSA 113", "value": 1, "unit": "µg/mL"}, {"measurement": "MIC", "setting": "MSSA, strain MSSA 01", "value": 1, "unit": "µg/mL"}, {"measurement": "MIC", "setting": "MSSA, strain MSSA 02", "value": 1, "unit": "µg/mL"}, {"measurement": "MIC", "setting": "NEWMAN, strain Newman", "value": 2, "unit": "µg/mL"}, {"measurement": "MIC", "setting": "strain 9-1862936", "value": 1, "unit": "µg/mL"}, {"measurement": "MIC", "setting": "strain 9-2625962", "value": 1, "unit": "µg/mL"}, {"measurement": "MIC", "setting": "strain 9-2642158", "value": 1, "unit": "µg/mL"}, {"measurement": "MIC", "setting": "strain 9-2955245", "value": 1, "unit": "µg/mL"}, {"measurement": "MIC", "setting": "strain 9-26422166", "value": 1, "unit": "µg/mL"}, {"measurement": "MIC", "setting": "strain 000040C", "value": 1, "unit": "µg/mL"}, {"measurement": "MIC", "setting": "strain 000041C", "value": 1, "unit": "µg/mL"}, {"measurement": "MIC", "setting": "strain 000274T", "value": 1, "unit": "µg/mL"}, {"measurement": "MIC", "setting": "strain 114660U", "value": 1, "unit": "µg/mL"}, {"measurement": "MIC", "setting": "strain 115015T", "value": 2, "unit": "µg/mL"}, {"measurement": "MIC", "setting": "strain 115242C", "value": 1, "unit": "µg/mL"}, {"measurement": "MIC", "setting": "strain 115263C", "value": 2, "unit": "µg/mL"}, {"measurement": "MIC", "setting": "strain 115268C", "value": 1, "unit": "µg/mL"}, {"measurement": "MIC", "setting": "strain 115273C", "value": 1, "unit": "µg/mL"}, {"measurement": "MIC", "setting": "strain 115295C", "value": 1, "unit": "µg/mL"}, {"measurement": "MIC", "setting": "strain 115303C", "value": 1, "unit": "µg/mL"}, {"measurement": "MIC", "setting": "strain 115370U", "value": 1, "unit": "µg/mL"}, {"measurement": "MIC", "setting": "strain 115427C", "value": 1, "unit": "µg/mL"}, {"measurement": "MIC", "setting": "strain 115445C", "value": 1, "unit": "µg/mL"}, {"measurement": "MIC", "setting": "strain 115561C", "value": 1, "unit": "µg/mL"}, {"measurement": "MIC", "setting": "strain 115584D", "value": 2, "unit": "µg/mL"}, {"measurement": "MIC", "setting": "strain 115628T", "value": 2, "unit": "µg/mL"}, {"measurement": "MIC", "setting": "strain 115690C", "value": 2, "unit": "µg/mL"}, {"measurement": "MIC", "setting": "strain 115691T", "value": 1, "unit": "µg/mL"}, {"measurement": "MIC", "setting": "strain 115740E", "value": 1, "unit": "µg/mL"}, {"measurement": "MIC", "setting": "strain 115810E", "value": 1, "unit": "µg/mL"}, {"measurement": "MIC", "setting": "strain 115903T", "value": 1, "unit": "µg/mL"}, {"measurement": "MIC", "setting": "strain 116122T", "value": 1, "unit": "µg/mL"}, {"measurement": "MIC", "setting": "strain E5-1029252", "value": 1, "unit": "µg/mL"}, {"measurement": "MIC", "setting": "strain E5-1029558", "value": 1, "unit": "µg/mL"}, {"measurement": "MIC", "setting": "strain E5-1030440", "value": 1, "unit": "µg/mL"}, {"measurement": "MIC", "setting": "strain E5-1030469", "value": 2, "unit": "µg/mL"}, {"measurement": "MIC", "setting": "strain E5-1030472", "value": 1, "unit": "µg/mL"}, {"measurement": "MIC", "setting": "strain E5-1030482", "value": 1, "unit": "µg/mL"}, {"measurement": "MIC", "setting": "strain E5-1033076 (first listing, r204)", "value": 1, "unit": "µg/mL"}, {"measurement": "MIC", "setting": "strain E5-1033076 (second listing, r205)", "value": 1, "unit": "µg/mL"}, {"measurement": "MIC", "setting": "strain E5-1033088", "value": 1, "unit": "µg/mL"}, {"measurement": "MIC", "setting": "strain E5-1033091", "value": 1, "unit": "µg/mL"}, {"measurement": "MIC", "setting": "strain E5-1035277", "value": 1, "unit": "µg/mL"}, {"measurement": "MIC", "setting": "strain E5-1035284", "value": 1, "unit": "µg/mL"}, {"measurement": "MIC", "setting": "strain E5-1035775", "value": 1, "unit": "µg/mL"}, {"measurement": "MIC", "setting": "strain E5-1035779", "value": 1, "unit": "µg/mL"}, {"measurement": "MIC", "setting": "strain E5-1037958", "value": 1, "unit": "µg/mL"}, {"measurement": "MIC", "setting": "strain E5-1037971", "value": 1, "unit": "µg/mL"}, {"measurement": "MIC", "setting": "strain E5-1038279", "value": 1, "unit": "µg/mL"}, {"measurement": "MIC", "setting": "strain E5-1038286", "value": 1, "unit": "µg/mL"}, {"measurement": "MIC", "setting": "strain E5-1038294", "value": 1, "unit": "µg/mL"}, {"measurement": "MIC", "setting": "strain E5-1039684", "value": 1, "unit": "µg/mL"}, {"measurement": "MIC", "setting": "strain E5-1039697", "value": 1, "unit": "µg/mL"}, {"measurement": "MIC", "setting": "strain E5-1041977", "value": 2, "unit": "µg/mL"}, {"measurement": "MIC", "setting": "strain E5-1041979", "value": 1, "unit": "µg/mL"}, {"measurement": "MIC", "setting": "strain E5-1041980", "value": 1, "unit": "µg/mL"}, {"measurement": "MIC", "setting": "strain E5-1041987", "value": 1, "unit": "µg/mL"}, {"measurement": "MIC", "setting": "strain E5-1043184", "value": 1, "unit": "µg/mL"}, {"measurement": "MIC", "setting": "strain E5-1043668", "value": 1, "unit": "µg/mL"}, {"measurement": "MIC", "setting": "strain E5-1045179", "value": 1, "unit": "µg/mL"}, {"measurement": "MIC", "setting": "strain E5-1046019", "value": 1, "unit": "µg/mL"}, {"measurement": "MIC", "setting": "strain E5-1046020", "value": 1, "unit": "µg/mL"}, {"measurement": "MIC", "setting": "strain E5-1046039", "value": 1, "unit": "µg/mL"}, {"measurement": "MIC", "setting": "strain E5-1046070", "value": 1, "unit": "µg/mL"}, {"measurement": "MIC", "setting": "strain E5-1046074", "value": 1, "unit": "µg/mL"}, {"measurement": "MIC", "setting": "strain E5-1046085", "value": 2, "unit": "µg/mL"}, {"measurement": "MIC", "setting": "strain E5-1046096", "value": 1, "unit": "µg/mL"}, {"measurement": "MIC", "setting": "strain E5-1046296", "value": 1, "unit": "µg/mL"}, {"measurement": "MIC", "setting": "strain E5-1046297", "value": 1, "unit": "µg/mL"}, {"measurement": "MIC", "setting": "strain E5-1046298", "value": 1, "unit": "µg/mL"}, {"measurement": "MIC", "setting": "strain E5-1046723", "value": 2, "unit": "µg/mL"}, {"measurement": "MIC", "setting": "strain E5-1047585", "value": 1, "unit": "µg/mL"}, {"measurement": "MIC", "setting": "strain E5-1047606", "value": 1, "unit": "µg/mL"}, {"measurement": "MIC", "setting": "strain E5-1047924", "value": 1, "unit": "µg/mL"}, {"measurement": "MIC", "setting": "strain E5-1048204", "value": 2, "unit": "µg/mL"}, {"measurement": "MIC", "setting": "strain E5-1048428", "value": 1, "unit": "µg/mL"}, {"measurement": "MIC", "setting": "strain E5-1048654", "value": 1, "unit": "µg/mL"}, {"measurement": "MIC", "setting": "strain E5-1048670", "value": 2, "unit": "µg/mL"}, {"measurement": "MIC", "setting": "strain EEFIC 01", "value": 1, "unit": "µg/mL"}, {"measurement": "MIC", "setting": "strain EEFIC 02", "value": 1, "unit": "µg/mL"}, {"measurement": "MIC", "setting": "strain K000772", "value": 1, "unit": "µg/mL"}, {"measurement": "MIC", "setting": "strain K000796", "value": 1, "unit": "µg/mL"}, {"measurement": "MIC", "setting": "strain K000863", "value": 1, "unit": "µg/mL"}, {"measurement": "MIC", "setting": "strain K000864", "value": 1, "unit": "µg/mL"}, {"measurement": "MIC", "setting": "strain K000866", "value": 1, "unit": "µg/mL"}, {"measurement": "MIC", "setting": "strain K115498", "value": 2, "unit": "µg/mL"}, {"measurement": "MIC", "setting": "strain K115688", "value": 2, "unit": "µg/mL"}, {"measurement": "MIC", "setting": "strain K115689", "value": 2, "unit": "µg/mL"}, {"measurement": "MIC", "setting": "strain R000019", "value": 2, "unit": "µg/mL"}, {"measurement": "MIC", "setting": "strain R000020", "value": 1, "unit": "µg/mL"}, {"measurement": "MIC", "setting": "strain R000024", "value": 1, "unit": "µg/mL"}, {"measurement": "MIC", "setting": "strain U115579", "value": 1, "unit": "µg/mL"}]}]}
